The values below come from ChEMBL document CHEMBL4033706, “Synthesis of novel acyl selenoureido benzensulfonamides as carbonic anhydrase I, II, VII and IX inhibitors” (Bioorg Med Chem, 2017).

pKi: −log10 of the molar value.

For this test, the target named is Carbonic anhydrase 9 (Homo sapiens, UniProt Q16790).
Description: Inhibition of recombinant human carbonic anhydrase-9 assessed as reduction in CO2 hydration preincubated for 15 mins followed by CO2 addition measured for 10 to 100 secs by stopped-flow assay
For orientation: pKi means −log10 of the Ki, conventionally taken in molar units. `NS(=O)(=O)c1ccc(CCNC(=[Se])NC(=O)c2ccc(-c3ccccc3)cc2)cc1` had a pKi of 5.31. With `NS(=O)(=O)c1ccccc1NC(=[Se])NC(=O)c1ccccc1`, the pKi was 6.55. `Cc1cccc(C(=O)NC(=[Se])NCCc2ccc(S(N)(=O)=O)cc2)c1`: the pKi is 6.84. As to `Cc1cc(C(=O)NC(=[Se])Nc2cc(S(N)(=O)=O)ccc2O)ccc1Br`, the negative logarithm of the Ki (pKi) is 8.24. For `NS(=O)(=O)c1ccc(CCNC(=[Se])NC(=O)c2ccc3c(c2)OCO3)cc1`, the pKi was 6.98. On to `CC(=O)Oc1ccccc1C(=O)NC(=[Se])Nc1cc(S(N)(=O)=O)ccc1O`, for which the negative logarithm of the Ki (pKi) was 7.09. The compound `NS(=O)(=O)c1ccc(O)c(NC(=[Se])NC(=O)c2ccc(-c3ccccc3)cc2)c1` showed a pKi of 7.16. The compound `CCCCCCCc1ccc(C(=O)NC(=[Se])Nc2ccc(S(N)(=O)=O)cc2)cc1` gave a pKi of 7.60. On to `NS(=O)(=O)c1ccc(CCNC(=[Se])NC(=O)c2ccccc2)cc1`, for which the pKi was 8.14. The result for `NS(=O)(=O)c1cccc(NC(=[Se])NC(=O)c2ccccc2)c1` reads 6.43.

The compound `NS(=O)(=O)c1cccc(NC(=[Se])NC(=O)c2ccc(C(F)(F)F)cc2C(F)(F)F)c1` gave a negative logarithm of the Ki (pKi) of 5.33. On to `CC(=O)Oc1ccccc1C(=O)NC(=[Se])Nc1ccc(S(N)(=O)=O)cc1`, for which the negative-log Ki (pKi) is 7.87. Turning to `NS(=O)(=O)c1ccc(NC(=[Se])NC(=O)c2ccc3c(c2)OCO3)cc1`, the negative logarithm of the Ki (pKi) is 6.89. Compound `NS(=O)(=O)c1ccc(NC(=[Se])NC(=O)c2cc(Br)cc(OC(F)(F)F)c2)cc1` gave a pKi of 8.46. For `Cc1cccc(C(=O)NC(=[Se])Nc2cccc(S(N)(=O)=O)c2)c1`, the negative logarithm of the Ki (pKi) was 7.36.

With `NS(=O)(=O)c1ccc(NC(=[Se])NC(=O)c2ccccc2)cc1`, the negative logarithm of the Ki (pKi) is 8.34.
